Our source for the pIC50 values is patent US8153809B2, “Dihydropyridone ureas as P2X7 modulators” (Roche Palo Alto LLC, priority 2008, dated 2012).

The assay addresses T1, P2X7 (UniProt Q99572).
T1 sequence (Q99572 1-595): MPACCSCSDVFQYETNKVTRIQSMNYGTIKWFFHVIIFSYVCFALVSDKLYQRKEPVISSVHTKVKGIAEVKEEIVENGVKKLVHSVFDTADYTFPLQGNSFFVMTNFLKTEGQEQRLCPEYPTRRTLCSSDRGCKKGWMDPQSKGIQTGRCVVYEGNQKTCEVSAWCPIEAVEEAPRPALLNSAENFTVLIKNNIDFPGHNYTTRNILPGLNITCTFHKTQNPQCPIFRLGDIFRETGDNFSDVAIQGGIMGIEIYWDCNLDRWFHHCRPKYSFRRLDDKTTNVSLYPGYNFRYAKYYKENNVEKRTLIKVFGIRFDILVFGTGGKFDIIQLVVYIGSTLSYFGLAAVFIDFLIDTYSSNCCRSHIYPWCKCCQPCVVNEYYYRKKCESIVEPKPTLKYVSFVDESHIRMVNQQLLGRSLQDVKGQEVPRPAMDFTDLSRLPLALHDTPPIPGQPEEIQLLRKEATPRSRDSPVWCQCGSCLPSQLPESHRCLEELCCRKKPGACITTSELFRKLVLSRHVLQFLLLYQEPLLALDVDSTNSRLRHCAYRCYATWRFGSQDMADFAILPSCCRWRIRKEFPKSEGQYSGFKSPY
Kind of assay: pIC50 values for P2X7 (Table 1). The assay is classed as cell-based. As to the method: Intracellular Calcium Flux (FLIPR) Assay
Compound and Reagent Preparation
Stock solutions of compounds were prepared from powders as a 10 mM DMSO stock solution. These solutions were stored at RT during the two week period of these experiments to prevent freeze-thaw of the DMSO stocks. The DMSO stocks were added to the appropriate assay buffer at a concentration of 10 μM, and then diluted serially to the final concentrations that were tested. […] The aqueous solutions of compounds as well as ATP (Sigma A7699) and BzATP (Sigma B6396) were prepared fresh for each day of experiment.
1321N1 cells stably expressing the full length human P2X7 gene (1321N1-hP2X7) and HEK293 cells stably expressing the full length rat P2X7 gene (HEK293-rP2X7) were obtained from the Roche Cell Culture Facility. 1321N1-hP2X7 cells were grown in Dulbecco's Modified Eagle's Medium (DMEM) high glucose supplemented with 10% FBS and 250 μg/mL G418. HEK293-rP2X7 cells were grown in DMEM/F-12 supplemented with 10% FBS, 1 mM CaCl2, 2 mM MgCl2, 2 mM L-Glutamine and 500 μg/ml G418. Cells were split such that they never became >70% confluent.
Intracellular Calcium Flux (FLIPR)
On the day prior to the experiment, 1321N1-hP2X7 or HEK293-rP2X7 cells were released into suspension with calcium-free PBS+Versene and washed by centrifugation with calcium-free PBS to remove the Versene.
On the day of the experiment, plates were washed with FLIPR buffer (calcium- and magnesium-free Hank's Balanced Salt Solution (HBSS) supplemented with 10 mM Hepes, 2.5 mM probenecid and 2 mM calcium chloride) using a BIO-TEK 96 channel plate washer and incubated with […] fluo-3 dye at 37° C. for one hr. The dye was then removed by plate washing and the cells were allowed to equilibrate for 20 min at room temperature with antagonist or vehicle (FLIPR buffer). Agonist (100 μM BzATP final concentration for hP2X7; 5 μM BzATP final concentration or rP2X7) was added online with the FLIPR and fluorescence measurements made at 1 sec intervals for 60 sec followed by 3 sec intervals for a further 4 min (5 min total). A final addition of 5 μM ionomycin was made and the maximal BzATP-evoked fluorescence normalized to the maximal ionomycin-evoked fluorescence.
As usually defined, the pIC50 is −log10 of the IC50, conventionally taken in molar units. Read a low pIC50 as a large IC50. For `COc1cc(NC(=O)N2C=CC(=O)C[C@H]2c2cc(F)cc(F)c2)c(Br)cc1C` (stereo in doubt) [Compound 47, 2-(3,5-Difluoro-phenyl)-4-oxo-3,4-dihydro-2H-pyridine-1-carboxylic acid (2-bromo-5-methoxy-4-methyl-phenyl)-amide], the pIC50 was found to be 6.987. `COc1cc(Br)c(NC(=O)N2C=CC(=O)CC2c2ccccc2)cc1OC` (stereo not drawn) [Compound 1, 4-Oxo-2-phenyl-3,4-dihydro-2H-pyridine-1-carboxylic acid (2-bromo-4,5-dimethoxy-phenyl)-amide] yielded a pIC50 of 7.408. Compound `COc1cc(NC(=O)N2C=CC(=O)CC2c2ccccc2)c(Br)cc1Cl` (stereo not drawn) [Compound 2, 4-Oxo-2-phenyl-3,4-dihydro-2H-pyridine-1-carboxylic acid (2-bromo-4-chloro-5-methoxy-phenyl)-amide] returned a pIC50 of 6.425. The value for `COc1cc(Br)c(NC(=O)N2C=CC(=O)C[C@H]2c2ccc(F)cc2)cc1OC` [Compound 3, (S)-2-(4-Fluoro-phenyl)-4-oxo-3,4-dihydro-2H-pyridine-1-carboxylic acid (2-bromo-4,5-dimethoxy-phenyl)-amide] was 8.055. For `COc1cc(NC(=O)N2C=CC(=O)C[C@H]2c2ccccc2)c(Br)cc1Cl` [Compound 4, (S)-4-Oxo-2-phenyl-3,4-dihydro-2H-pyridine-1-carboxylic acid (2-bromo-4-chloro-5-methoxy-phenyl)-amide], the pIC50 is on record as 7.476.

On to `COc1cc(NC(=O)N2C=CC(=O)C[C@H]2c2ccc(F)cc2)c(Br)cc1Cl` [Compound 5, (S)-2-(4-Fluoro-phenyl)-4-oxo-3,4-dihydro-2H-pyridine-1-carboxylic acid (2-bromo-4-chloro-5-methoxy-phenyl)-amide], for which the pIC50 turned out to be 7.4325. Compound `COc1cc(NC(=O)N2C=CC(=O)C[C@H]2c2ccc(F)cc2)c(Br)cc1F` [Compound 6, (S)-2-(4-Fluoro-phenyl)-4-oxo-3,4-dihydro-2H-pyridine-1-carboxylic acid (2-bromo-4-fluoro-5-methoxy-phenyl)-amide] came in with a pIC50 of 7.5. This pIC50 and that of the compound before are within 0.2 log units of each other. In the case of `COc1cc(NC(=O)N2C=CC(=O)C[C@H]2c2ccc(F)cc2)c(Cl)cc1Cl` [Compound 7, (S)-2-(4-Fluoro-phenyl)-4-oxo-3,4-dihydro-2H-pyridine-1-carboxylic acid (2,4-dichloro-5-methoxy-phenyl)-amide], the pIC50 stood at 6.73.

As to `COc1cc(NC(=O)N2C=CC(=O)C[C@H]2c2ccc(F)cc2)c(Br)cc1C(F)(F)F` [Compound 8, (S)-2-(4-Fluoro-phenyl)-4-oxo-3,4-dihydro-2H-pyridine-1-carboxylic acid (2-bromo-5-methoxy-4-trifluoromethyl-phenyl)-amide], the pIC50 is 6.09. The value for `O=C1C=CN(C(=O)Nc2cc(Cl)c(Cl)cc2Br)[C@H](c2ccc(F)cc2)C1` [Compound 9, (S)-2-(4-Fluoro-phenyl)-4-oxo-3,4-dihydro-2H-pyridine-1-carboxylic acid (2-bromo-4,5-dichloro-phenyl)-amide] was 6.11. For the compound `O=C1C=CN(C(=O)Nc2cc(I)c(Cl)cc2Br)[C@H](c2ccc(F)cc2)C1` [Compound 10, (S)-2-(4-Fluoro-phenyl)-4-oxo-3,4-dihydro-2H-pyridine-1-carboxylic acid (2-bromo-4-chloro-5-iodo-phenyl)-amide], the pIC50 amounted to 6.5175. As for `O=C1C=CN(C(=O)Nc2cc(C(F)(F)F)c(Cl)cc2Br)[C@H](c2ccc(F)cc2)C1` [Compound 11, (S)-2-(4-Fluoro-phenyl)-4-oxo-3,4-dihydro-2H-pyridine-1-carboxylic acid (2-bromo-4-chloro-5-trifluoromethyl-phenyl)-amide], the pIC50 is recorded as 6.015. The compound `COc1cc(NC(=O)N2C=CC(=O)C[C@H]2c2ccc(F)cc2)c(Br)cc1C` [Compound 12, (S)-2-(4-Fluoro-phenyl)-4-oxo-3,4-dihydro-2H-pyridine-1-carboxylic acid (2-bromo-5-methoxy-4-methyl-phenyl)-amide] registered a pIC50 of 7.873. As to `COc1cc(NC(=O)N2C=CC(=O)C[C@H]2c2ccc(F)cc2)c(C(C)C)cc1OC` [Compound 13, (S)-2-(4-Fluoro-phenyl)-4-oxo-3,4-dihydro-2H-pyridine-1-carboxylic acid (2-isopropyl-4,5-dimethoxy-phenyl)-amide], the negative-log IC50 (pIC50) was 6.66. `CSc1cc(NC(=O)N2C=CC(=O)C[C@H]2c2ccc(F)cc2)c(Br)cc1Cl` [Compound 14, (S)-2-(4-Fluoro-phenyl)-4-oxo-3,4-dihydro-2H-pyridine-1-carboxylic acid (2-bromo-4-chloro-5-methylsulfanyl-phenyl)-amide] came in with a pIC50 of 6.726. As to `CS(=O)(=O)c1cc(NC(=O)N2C=CC(=O)C[C@H]2c2ccc(F)cc2)c(Br)cc1Cl` [Compound 15, (S)-2-(4-Fluoro-phenyl)-4-oxo-3,4-dihydro-2H-pyridine-1-carboxylic acid (2-bromo-4-chloro-5-methanesulfonyl-phenyl)-amide], the pIC50 worked out at 5.94. The value for `C[S@@+]([O-])c1cc(NC(=O)N2C=CC(=O)C[C@H]2c2ccc(F)cc2)c(Br)cc1Cl` [Compound 16, (S)-2-(4-Fluoro-phenyl)-4-oxo-3,4-dihydro-2H-pyridine-1-carboxylic acid [2-bromo-4-chloro-5-((R)-methanesulfinyl)-phenyl]-amide] was 6.623; that for `C[S@+]([O-])c1cc(NC(=O)N2C=CC(=O)C[C@H]2c2ccc(F)cc2)c(Br)cc1Cl` [Compound 17, (S)-2-(4-Fluoro-phenyl)-4-oxo-3,4-dihydro-2H-pyridine-1-carboxylic acid [2-bromo-4-chloro-5-((S)-methanesulfinyl)-phenyl]-amide] was 5.86; that for `O=C1C=CN(C(=O)Nc2cc(F)c(Cl)cc2Br)[C@H](c2ccc(F)cc2)C1` [Compound 18, (S)-2-(4-Fluoro-phenyl)-4-oxo-3,4-dihydro-2H-pyridine-1-carboxylic acid (2-bromo-4-chloro-5-fluoro-phenyl)-amide] was 6.286.

In the case of `COc1cc(Br)c(NC(=O)N2C=CC(=O)C[C@H]2c2cccc(F)c2)cc1OC` [Compound 19, (S)-2-(3-Fluoro-phenyl)-4-oxo-3,4-diohydro-2H-pyridine-1-carboxylic acid (2-bromo-4,5-dimethoxy-phenyl)-amide], the pIC50 was 8.56.

As for `COc1cc(NC(=O)N2C=CC(=O)CC2c2cccnc2)c(Br)cc1C` (stereo not drawn) [Compound 20, 4-Oxo-3,4-dihydro-2H-[2,3′]bipyridinyl-1-carboxylic acid (2-bromo-5-methoxy-4-methyl-phenyl)-amide], the pIC50 is on record as 5.995.

`COc1ccc(Br)c(NC(=O)N2C=CC(=O)C[C@H]2c2ccc(F)cc2)n1` [Compound 21, (S)-2-(4-Fluoro-phenyl)-4-oxo-3,4-dihydro-2H-pyridine-1-carboxylic acid (3-bromo-6-methoxy-pyridin-2-yl)-amide]: the pIC50 stood at 6.32. Consider `COC(=O)c1cc(Br)c(NC(=O)N2C=CC(=O)CC2c2ccc(F)cc2)cc1OC` (stereo not drawn) [Compound 22, 5-Bromo-4-{[2-(4-fluoro-phenyl)-4-oxo-3,4-dihydro-2H-pyridine-1-carbonyl]-amino}-2-methoxy-benzoic acid methyl ester], for which the pIC50 came to 7.15. `Cc1ccc(S(=O)(=O)n2nc(C)c3cc(Br)c(NC(=O)N4C=CC(=O)C[C@H]4c4ccc(F)cc4)cc32)cc1` [Compound 23, (S)-2-(4-Fluoro-phenyl)-4-oxo-3,4-dihydro-2H-pyridine-1-carboxylic acid [5-bromo-3-methyl-1-(toluene-4-sulfonyl)-1H-indazol-6-yl]-amide] displayed a pIC50 of 5.245.
